Data from patent US7056509B2 (Board of Regents The University of Texas System, priority 1999, dated 2006).

Columns and labels:
VEGFR2 (KDR/Fc) = experiment: Coprecipitation assay, VEGF with VEGFR2/Fc in solution; assay type: binding; conditions: 40 ng VEGF, 200 ng receptor/Fc, F(ab′)2 of antibody
Protocol: 200 ng of soluble forms of VEGFR1 (Flt-1/Fc) or VEGFR2 (KDR/Fc, R&D Systems, Minneapolis, Minn.) were added for a total volume of 50 μl and incubated for 2 hrs. The receptor/Fc constructs were precipitated using Protein A-sepharose beads and the resulting precipitate was washed 4 times with binding buffer.
Reducing sample buffer was added to the pellet and supernatant of each reaction and both were analyzed by 12% SDS-PAGE and transferred to PVDF membranes. […] The soluble receptor/Fc constructs were also detected by using peroxidase-conjugated goat anti-human Fc (Kirkegaard & Perry Laboratories, Inc.)
The receptor/Fc constructs were precipitated by incubation with Protein A sepharose beads. The precipitate was washed and resuspended in reducing sample buffer and separated by 12% SDS-PAGE and transferred to PVDF.

[1] = system: human NCI-H358 NSCLC tumors; experiment: Localization of 2C3-GUS in SCID mice bearing NCI-H358 tumors; assay type: in vivo, mouse
[2] = Blood clearance of radioiodinated 2C3-GUS in mice; assay type: in vivo, mouse; conditions: after intravenous injection into mice, 125I-labelled
From the text: 2C3-GUS was radioiodinated with ^125I to a specific activity of 5×10^6 cpm/μg.

VEGFR2 in PAE/KDR cells = experiment: VEGF-induced phosphorylation of VEGFR2 (immunoprecipitation and western blot); assay type: cell-based, porcine; conditions: antibody at 100 nM, 15 min
Protocol: PAE/KDR, PAE/FLT, and bEND.3 cells were grown to 80–90% confluency in 100 mm tissue dishes in media containing 5% serum. The cells were then serum starved for 24 hours in media containing 0.1% serum. After pretreatment with […] in PBS for 30 min, the cells were incubated with 5 nM (200 ng/ml) VEGF165, 5 nM (100 ng/ml) bFGF (R&D Systems, Minneapolis, Minn.), or A673 tumor conditioned media in the presence or absence of control or test antibodies for additional 15 min.
The cells were then washed with ice-cold PBS containing 10 mM EDTA, 2 mM sodium fluoride, and 2 mM sodium orthovanadate and lysed in lysis buffer (50 mM Tris, 150 mM NaCl, 1% Nonidet P-40, 0.25% sodium deoxycholate, 0.1% CHAPS, 5 mM EDTA, 1.5 mM MgCl2, 2 mM sodium fluoride, 2 mM sodium orthovanadate, 10% glycerol and protease inhibitors (Complete Protease Inhibitor Cocktail tablets, Boehringer Mannheim)). The lysates were clarified by centrifugation and resulting supernatant used for immunoprecipitation.
The reactions using the chicken anti-FLT-1 antibody were subsequently incubated with a bridging goat anti-chicken antibody (Kirkegaard and Perry Laboratories, Inc.) for 1 h at 4° C. […]

HT1080 fibrosarcoma = experiment: In vivo tumor therapy, established HT1080 xenografts; set-up: species or system mouse; conditions: 100 μg i.p. every other day
Protocol: (§1) Male nu/nu mice bearing subcutaneous NCI-H358 tumors or HT1080 fibrosarcoma 200–400 mm^3 in size were injected i.p. with test or control antibodies. The NCI-H358 bearing mice were treated with 100 μg of antibodies per injection three times a week during the first week and twice a week during the second and third week. The mice were then switched to 50 μg per injection every five days. The HT1080 bearing mice were treated with 100 μg of the indicated antibody or saline every other day throughout the duration of the study. In both studies, mice were sacrificed when their tumors reached 2500 mm^3 in size or earlier if tumors began to ulcerate.

A673 rhabdomyosarcoma [3] = experiment: In vivo tumor growth inhibition, newly-implanted A673; set-up: species or system mouse
Protocol: (§2) Nu/nu mice were injected subcutaneously with either 1×10^7 NCI-H358 NSCLC cells or 5×10^6 A673 rhabdomyosarcoma cells on day 0. […] The tumors were then measured twice per wk for a period of approximately six wk for the NCI-H358 bearing mice and four wk for the A673 bearing mice. Tumor volume was calculated according to the formula: volume=L×W×H, where L=length, W=width, H=height.

ABAE cells = experiment: Endothelial cell growth assay (VEGF-mediated growth, MTS); assay type: cell-based, bovine
Protocol: Adult bovine aortic endothelial (ABAE) cells were plated into 96-well tissue culture plates at 1500 cells/well and grown in the presence of 0.5 nM human VEGF with the addition of the various sample and control antibodies. Control wells received media with or without VEGF.
After 4 days of incubation, the cells were quantified by an MTS (3-(4,5-dimethylthiazol-2-yl)-5-(3-carboxylmethoxyphenyl)-2-(4-sulfophenyl)-2H-tetrazolium, inner salt) conversion assay, where MTS conversion to a formazan is proportional to cell number and can be followed by absorbance at 490 nm (Cell Titer 96 AQueous One Solution Cell Proliferation Assay, Promega, Madison, Wis.). The assay was performed according to the manufacturer's instructions.
Cell growth was estimated by subtracting the MTS conversion in cultures to which VEGF was not added. Results were expressed as a percentage of the MTS conversion in control cultures to which only VEGF was added (Buttke et al., 1993).

VEGF = target: T1, VEGF (Homo sapiens, UniProt P15692); experiment: Competition ELISA (epitope groups, cross-blocking); assay type: binding; conditions: ELISA cross-blocking studies of 2C3 with A4.6.1
T1 sequence (P15692 27-191 isoform P15692-4): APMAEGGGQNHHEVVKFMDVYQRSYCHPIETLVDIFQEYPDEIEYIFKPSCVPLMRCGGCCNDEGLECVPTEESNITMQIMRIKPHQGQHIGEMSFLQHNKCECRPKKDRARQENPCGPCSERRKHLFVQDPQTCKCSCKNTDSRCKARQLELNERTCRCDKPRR
Protocol: Competition ELISA studies were performed by first labeling the antibodies with peroxidase according to the manufacturer's instructions (EZ-Link Activated Peroxidase, Pierce). […] Approximately 0.5–2.0 μg/ml of peroxidase labeled test antibody was incubated on the plate in the presence of either buffer alone, an irrelevant IgG, or the other anti-VEGF competing antibodies in a 10–100 fold excess.
The assay was done in triplicate at least twice for each combination of labeled and competitor antibody. Two antibodies were considered to be in the same epitope group if they cross-blocked each other's binding by greater than 80%.

VEGF and VEGF:Flk-1 = target: T2, VEGF and VEGF:Flk-1 (Homo sapiens, UniProt P15692); experiment: Indirect and capture ELISA for reactivity with VEGF alone or VEGF associated with sFlk-1; assay type: binding; conditions: VEGF alone or VEGF associated with sFlk-1 (VEGF:Flk-1)
T2 sequence (P15692 27-191 isoform P15692-4): T1 sequence (P15692 27-191 isoform P15692-4)
Protocol: The Flk-1/SEAP protein was produced and purified as described by Tessler et al. (1994). Basically, the extracellular domain of Flk-1 (sFlk-1) was produced in Spodoptera frugiperda (Sf9) cells and purified by immunoaffinity techniques utilizing a monoclonal anti-Flk-1 antibody (1A8). sFlk-1 was then biotinylated and bound on avidin-coated plates.
The reactivity was determined as described above for the initial screening.
A capture ELISA was also developed. In the capture ELISA, microtiter plates were-coated overnight at 4° C. with 100 ng of the indicated antibody. […] Streptavidin conjugated to peroxidase (Kirkegaard & Perry Laboratories, Inc.), diluted 1:2000, was used as a second layer and developed.

NCI-H358 NSCLC = experiment: In vivo tumor growth inhibition, newly-implanted NCI-H358; set-up: species or system mouse
Protocol: as §2

VEGFR2 (KDR/Flk-1) = experiment: ELISA of VEGF binding to VEGFR2-coated wells in presence of antibody; set-up: species or system mouse; conditions: 1000-fold molar excess of antibody over VEGF (1 nM)
A673 rhabdomyosarcoma [4] = experiment: Treatment of mice with established A673 tumors; assay type: in vivo, mouse
[5] = system: NCI-H358 NSCLC and HT29 colon adenocarcinoma xenografts; experiment: In vivo localization to human tumor xenografts in tumor-bearing mice; set-up: species or system mouse; conditions: i.v. 24 hours prior to sacrifice; 3E7 and GV39M bound tumor vascular endothelium, 2C3 tumor stroma
Protocol: Tumors were grown subcutaneously in immunocompromised mice (NCI-H358 NSCLC in nu/nu mice and HT29 colon adenocarcinoma in SCID mice) until the tumor volume was approximately 1 cm^3. 100 μg of unlabeled antibody for studies using SCID mice, or 100 μg of biotinylated antibody for studies using nude mice, was injected intravenously via a tail vein. Twenty four hours later, the mice were anesthetized, perfused with PBS, and tumor and organs including heart, lungs, liver, kidneys, intestines and spleen were collected and snap frozen in liquid nitrogen.
The tumor and organs from each mouse were sectioned on a cryostat and stained for antibody immunohistochemically as above, with the exception that sections from the nude mice were developed using peroxidase labeled streptavidin-biotin complex (Dako, Carpinteria, Calif.) and the sections from the SCID mice were developed using two peroxidase-conjugated secondary antibodies, a goat anti-mouse IgG+IgM followed by a rabbit anti-goat IgG.
100 μg of GV39M and 3E7 or isotype-matched control IgG were injected into SCID mice bearing HT29 human colonic adenocarcinomas. Twenty-four hours later, the mice were sacrificed, exsanguinated and the tumors and tissues were removed.

NCI-H358 NSCLC tumors = experiment: In vivo tumor therapy, established NCI-H358 xenografts; set-up: species or system mouse
Protocol: as §1
Doses were 50–100 μg every 3–5 days. […] In addition to measuring mean tumor volume (FIG. 4), photographs of the mice from each treatment group were also taken to show the differences in tumor size and appearance at the end of the study.

[6] = system: LS174T colon adenocarcinoma; experiment: LS174T tumor model in mice; assay type: in vivo, mouse; conditions: mice with established tumors
[7] = patients having progressive disease before treatment; cited from earlier work
[8] = 100 μg i.p. 2 times per wk from day 1, nu/nu mice

In the case of 2C3 F(ab′)2: F(ab′)2 of 2C3, the “Blocking of VEGF binding to VEGFR2/Fc in solution” value (VEGFR2 (KDR/Fc)) is reported as “blocked the binding of VEGF to VEGFR2/Fc”.
In the case of 2C3-GUS, the “Localization after i.v. injection” value ([1]; immunohistochemistry on frozen sections of tumors) is reported as “specifically localized to tumor vasculature and surrounding tumor stroma”, the “Time of maximal localization after injection” value ([1]; mouse, in vivo) is reported as 24 to 48 h and the “Staining of normal tissues” value ([1]; mouse, in vivo, iv) is reported as “unstained”. For the same compound, the “t½ α” value [2] was “about 6 hours” and the “t½ β” value [2] was “about 25 hours”.
For “2C3: monoclonal anti-VEGF antibody, IgG2a k, hybridoma ATCC PTA 1595; blocks VEGF binding to VEGFR2 but not VEGFR1”, the “Blocking of VEGF-induced phosphorylation of VEGFR2” value (VEGFR2 in PAE/KDR cells) was “block VEGF-induced phosphorylation of VEGFR2”, the Tumor growth (HT1080 fibrosarcoma) was “arrested the growth of the tumors” and the Final tumor volume (A673 rhabdomyosarcoma [3]; [8]) was “approximately 150 mm^3”. For the same compound, the “Effect on growth of A673 tumors” value (A673 rhabdomyosarcoma [3]; 10 or 1 μg twice per wk, compared to untreated mice) was “did slow the growth of A673 tumors”, the “Blocks VEGF-induced proliferation” value (ABAE cells) was “Yes” and the “Epitope on VEGF” value (VEGF) was “not cross-reactive”. For the same compound, the “Predominant Reactivity” value (VEGF and VEGF:Flk-1) was “VEGF”, the Tumor growth retardation (NCI-H358 NSCLC; 10 μg dose twice per wk) was “less marked” and the Final tumor volume (NCI-H358 NSCLC; [8]) was “approximately 150 mm^3”. The “VEGF bound to VEGFR2-coated wells, % of amount bound in absence of antibody” value (VEGFR2 (KDR/Flk-1)) was roughly 19%, the “Growth of established tumors” value (A673 rhabdomyosarcoma [4]) was “significantly slowed the growth” and the “Immunohistochemical Reactivity Tumor” value [5] was 3+. The “Mean tumor volume after approximately 14 wk of treatment” value (NCI-H358 NSCLC tumors; 100 μg i.p., prolonged treatment (FIG. 5A)) was 84 mm^3, the “Mean tumor volume at the end of the study, % of initial mean tumor volume” value (NCI-H358 NSCLC tumors; 50–100 μg i.p. every 3–5 days, approximately 10 weeks of treatment) was 30% and the Mean tumor weight (NCI-H358 NSCLC tumors; end of the study (day 116), FIG. 5A) was 0.054 g. The “Decrease in mean tumor volume” value (NCI-H358 NSCLC tumors; start to approximately 14 wk of treatment (FIG. 5A)) was “approximately 80%” and the “Growth of established tumors” value [6] was “significantly slowed the growth”.
In the case of `NC(=O)c1nnn(Cc2cc(Cl)c(C(=O)c3ccc(Cl)cc3)c(Cl)c2)c1N` [CAI, carboxyamidotriazole], the “Cancer patients with disease stabilization” value [7] is given as 49%.
